The values that follow are results of earlier work, collected in US20080254084A1, “Antimicrobial Preparations Having a Content of Octenidine Dihydrochloride Encapsulated in Liposomes” (Air Liquide Sante (International), priority 2005, published 2008).

Counter-ions that a name gives are not always drawn.

Data set [1] concerns a large number of microbes. To be noted: concentrations of >0.001% octenidine dihydrochloride, within 1 min.
The conditions of data set [2]: octenidine dihydrochloride concentration.

Turning to `CCCCCCCCNc1cc[n+](CCCCCCCCCC[n+]2ccc(NCCCCCCCC)cc2)cc1` [octenidine dihydrochloride], the reduction factor in data set [1] is recorded as 5 decadic units. In addition, the “concentration at which cytotoxicity is present” value in data set [2] is on record as more than 0.001 % by weight.
